Source: patent US11504383B2, “Crystalline forms of a Ryanodine receptor modulator and uses thereof” (ARMGO Pharma, Inc., priority 2021, dated 2022)

Tests used:
Assay type in all cases: physicochemical
[1] = Competitive slurry experiments mixing Form 1 and Form 2 in various solvents; conditions: competitive slurry experiments at 15° C. and 40° C.
Protocol: Competitive slurry experiments were performed at 15° C. (Table 5) or 40° C. (Table 6) by mixing Form 1 and Form 2 in various solvents in acetonitrile/water, acetone/water and methanol/water mixtures. […] (Table 5) or 40° C. (Table 6).

[2] = Stability of Form 2 in an airtight glass bottle for up to 24 months under various storage conditions; set-up: key to Appearance: A1: White or almost white powder; key to Identification: I1: Spectrum of test sample identical to spectrum of reference sample; I3: Spectrum of test sample identical to spectrum of reference sample stored at −18° C
Protocol: Stability of 4-[(7-methoxy-2,3-dihydro-1,4-benzothiazepin-4(5H)yl)methyl]benzoic acid hemifumarate Form 2 was evaluated for up to 24 months under various conditions.

[3] = Storage stability of the polymorphs followed by XRD; conditions: after 24 months (XRD at 3, 6, 12 and 24 months)
Protocol: The top panel depicts the polymorph at initiation and the bottom three panels depict the polymorph after 24 months. FIG. 5 Panel A: initial control; FIG. 5 Panel B: sample stored for 2 years in open bottle in stability chambers at 25° C./60% relative humidity (RH); FIG. 5 Panel C: sample stored for 2 years in closed bottle in stability chambers at 40° C./75% RH; FIG. 5 Panel D: sample stored for 2 years in open bottle in stability chambers at 40° C./75% RH.
The top panel depicts the polymorph at initiation and the bottom panels depict the polymorph after 3, 6, 12 and 24 months.

Relative stability of the forms [1]: more stable than Form 1 | Appearance ([2]; 25° C./60% RH, 1 Y): A1 | Assay of Drug substance (LC) ([2]; 25° C./60% RH, 1 Y): 99.8% | Identification ([2]; 25° C./60% RH, 1 Y): I3 | Related substances content (LC) Sum of impurities ([2]; 25° C./60% RH, 1 Y): ≤0.05% | Water content ([2]; 25° C./60% RH, 1 Y): <0.1% | Appearance ([2]; 25° C./60% RH, 2 Y): A1 | Assay by potentiometry ([2]; 25° C./60% RH, 2 Y): 99.6% | Assay of Drug substance (LC) ([2]; 25° C./60% RH, 2 Y): 99.5% | Identification ([2]; 25° C./60% RH, 2 Y): I3 | Related substances content (LC) Sum of impurities ([2]; 25° C./60% RH, 2 Y): ≤0.05% | Water content ([2]; 25° C./60% RH, 2 Y): <0.1% | Appearance ([2]; 25° C./60% RH, 3 M): A1 | Assay by potentiometry ([2]; 25° C./60% RH, 3 M): 100.0% | Assay of Drug substance (LC) ([2]; 25° C./60% RH, 3 M): 99.6% | Identification ([2]; 25° C./60% RH, 3 M): I3 | Related substances content (LC) Sum of impurities ([2]; 25° C./60% RH, 3 M): ≤0.05% | Water content ([2]; 25° C./60% RH, 3 M): 0.1% | Appearance ([2]; 25° C./60% RH, 6 M): A1 | Assay by potentiometry ([2]; 25° C./60% RH, 6 M): 102.1% | Assay of Drug substance (LC) ([2]; 25° C./60% RH, 6 M): 99.7% | Identification ([2]; 25° C./60% RH, 6 M): I3 | Related substances content (LC) Sum of impurities ([2]; 25° C./60% RH, 6 M): ≤0.05% | Water content ([2]; 25° C./60% RH, 6 M): 0.1% | Appearance ([2]; 25° C./60% RH, 6 W): A1 | Assay by potentiometry ([2]; 25° C./60% RH, 6 W): 99.7% | Assay of Drug substance (LC) ([2]; 25° C./60% RH, 6 W): 102.5% | Identification ([2]; 25° C./60% RH, 6 W): I3 | Related substances content (LC) Sum of impurities ([2]; 25° C./60% RH, 6 W): ≤0.05% | Water content ([2]; 25° C./60% RH, 6 W): <0.1% | Appearance ([2]; 25° C./60% RH, 9 M): A1 | Assay by potentiometry ([2]; 25° C./60% RH, 9 M): 99.1% | Assay of Drug substance (LC) ([2]; 25° C./60% RH, 9 M): 100.6% | Identification ([2]; 25° C./60% RH, 9 M): I3 | Related substances content (LC) Sum of impurities ([2]; 25° C./60% RH, 9 M): ≤0.05% | Water content ([2]; 25° C./60% RH, 9 M): <0.1% | Appearance ([2]; 25° C./60% RH, 18 M): A1 | Assay by potentiometry ([2]; 25° C./60% RH, 18 M): 99.8% | Assay of Drug substance (LC) ([2]; 25° C./60% RH, 18 M): 100.9% | Identification ([2]; 25° C./60% RH, 18 M): I3 | Related substances content (LC) Sum of impurities ([2]; 25° C./60% RH, 18 M): ≤0.05% | Water content ([2]; 25° C./60% RH, 18 M): 0.1% | Appearance ([2]; 25° C./60% RH, T0): A1 | Assay by potentiometry ([2]; 25° C./60% RH, T0): 99.9% | Assay of Drug substance (LC) ([2]; 25° C./60% RH, T0): 99.7% | Identification ([2]; 25° C./60% RH, T0): I1 | Related substances content (LC) Sum of impurities ([2]; 25° C./60% RH, T0): ≤0.05% | Water content ([2]; 25° C./60% RH, T0): 0.1% | Appearance ([2]; 30° C./65% RH, 1 Y): A1 | Assay of Drug substance (LC) ([2]; 30° C./65% RH, 1 Y): 99.5% | Identification ([2]; 30° C./65% RH, 1 Y): I3 | Related substances content (LC) Sum of impurities ([2]; 30° C./65% RH, 1 Y): ≤0.05% | Water content ([2]; 30° C./65% RH, 1 Y): <0.1% | Appearance ([2]; 30° C./65% RH, 3 M): A1 | Assay by potentiometry ([2]; 30° C./65% RH, 3 M): 99.8% | Assay of Drug substance (LC) ([2]; 30° C./65% RH, 3 M): 99.7% | Identification ([2]; 30° C./65% RH, 3 M): I3 | Related substances content (LC) Sum of impurities ([2]; 30° C./65% RH, 3 M): ≤0.05% | Water content ([2]; 30° C./65% RH, 3 M): 0.1% | Appearance ([2]; 30° C./65% RH, 6 M): A1 | Assay by potentiometry ([2]; 30° C./65% RH, 6 M): 100.4% | Assay of Drug substance (LC) ([2]; 30° C./65% RH, 6 M): 100.2% | Identification ([2]; 30° C./65% RH, 6 M): I3 | Related substances content (LC) Sum of impurities ([2]; 30° C./65% RH, 6 M): ≤0.05% | Water content ([2]; 30° C./65% RH, 6 M): 0.1% | Appearance ([2]; 30° C./65% RH, 6 W): A1 | Assay by potentiometry ([2]; 30° C./65% RH, 6 W): 99.8% | Assay of Drug substance (LC) ([2]; 30° C./65% RH, 6 W): 102.4% | Identification ([2]; 30° C./65% RH, 6 W): I3 | Related substances content (LC) Sum of impurities ([2]; 30° C./65% RH, 6 W): ≤0.05% | Water content ([2]; 30° C./65% RH, 6 W): <0.1% | Appearance ([2]; 30° C./65% RH, 9 M): A1 | Assay by potentiometry ([2]; 30° C./65% RH, 9 M): 99.6% | Assay of Drug substance (LC) ([2]; 30° C./65% RH, 9 M): 99.7% | Identification ([2]; 30° C./65% RH, 9 M): I3 | Related substances content (LC) Sum of impurities ([2]; 30° C./65% RH, 9 M): ≤0.05% | Water content ([2]; 30° C./65% RH, 9 M): <0.1% | Appearance ([2]; 30° C./65% RH, T0): A1 | Assay by potentiometry ([2]; 30° C./65% RH, T0): 99.9% | Assay of Drug substance (LC) ([2]; 30° C./65% RH, T0): 99.7% | Identification ([2]; 30° C./65% RH, T0): I1 | Related substances content (LC) Sum of impurities ([2]; 30° C./65% RH, T0): ≤0.05% | Water content ([2]; 30° C./65% RH, T0): 0.1% | Appearance ([2]; 40° C./75% RH, 3 M): A1 | Assay by potentiometry ([2]; 40° C./75% RH, 3 M): 99.8% | Assay of Drug substance (LC) ([2]; 40° C./75% RH, 3 M): 99.5% | Identification ([2]; 40° C./75% RH, 3 M): I3 | Related substances content (LC) Sum of impurities ([2]; 40° C./75% RH, 3 M): ≤0.05% | Water content ([2]; 40° C./75% RH, 3 M): 0.1% | Appearance ([2]; 40° C./75% RH, 6 M): A1 | Assay by potentiometry ([2]; 40° C./75% RH, 6 M): 100.5% | Assay of Drug substance (LC) ([2]; 40° C./75% RH, 6 M): 99.2% | Identification ([2]; 40° C./75% RH, 6 M): I3 | Related substances content (LC) Sum of impurities ([2]; 40° C./75% RH, 6 M): ≤0.05% | Water content ([2]; 40° C./75% RH, 6 M): 0.1% | Appearance ([2]; 40° C./75% RH, 6 W): A1 | Assay by potentiometry ([2]; 40° C./75% RH, 6 W): 99.8% | Assay of Drug substance (LC) ([2]; 40° C./75% RH, 6 W): 102.2% | Identification ([2]; 40° C./75% RH, 6 W): I3 | Related substances content (LC) Sum of impurities ([2]; 40° C./75% RH, 6 W): ≤0.05% | Water content ([2]; 40° C./75% RH, 6 W): 0.1% | Appearance ([2]; 40° C./75% RH, T0): A1 | Assay by potentiometry ([2]; 40° C./75% RH, T0): 99.9% | Assay of Drug substance (LC) ([2]; 40° C./75% RH, T0): 99.7% | Identification ([2]; 40° C./75% RH, T0): I1 | Related substances content (LC) Sum of impurities ([2]; 40° C./75% RH, T0): ≤0.05% | Water content ([2]; 40° C./75% RH, T0): 0.1% | Appearance ([2]; −18° C., 1 Y): A1 | Water content ([2]; −18° C., 1 Y): <0.1% | Appearance ([2]; −18° C., 2 Y): A1 | Water content ([2]; −18° C., 2 Y): <0.1% | Appearance ([2]; −18° C., 3 M): A1 | Water content ([2]; −18° C., 3 M): 0.1% | Appearance ([2]; −18° C., 6 M): A1 | Water content ([2]; −18° C., 6 M): 0.1% | Appearance ([2]; −18° C., 6 W): A1 | Assay by potentiometry ([2]; −18° C., 6 W): 99.9% | Identification ([2]; −18° C., 6 W): I3 | Water content ([2]; −18° C., 6 W): 0.1% | Appearance ([2]; −18° C., 9 M): A1 | Assay by potentiometry ([2]; −18° C., 9 M): 99.7% | Water content ([2]; −18° C., 9 M): <0.1% | Appearance ([2]; −18° C., 18 M): A1 | Water content ([2]; −18° C., 18 M): 0.1% | Appearance ([2]; −18° C., T0): A1 | Assay by potentiometry ([2]; −18° C., T0): 99.9% | Assay of Drug substance (LC) ([2]; −18° C., T0): 99.7% | Identification ([2]; −18° C., T0): I1 | Related substances content (LC) Sum of impurities ([2]; −18° C., T0): ≤0.05% | Water content ([2]; −18° C., T0): 0.1% | Stability of the polymorph on storage (XRD, FIG. 10) [3]: stable
SMILES: COc1ccc2c(c1)CN(Cc1ccc(C(=O)O)cc1)CCS2.O=C(O)/C=C/C(=O)O [Form 2, 4-[(7-methoxy-2,3-dihydro-1,4-benzothiazepin-4(5H)yl)methyl]benzoic acid, hemifumarate]
